ChEMBL document CHEMBL5150071, “BAY-7081: A Potent, Selective, and Orally Bioavailable Cyanopyridone-Based PDE9A Inhibitor” (J Med Chem, 2022)
pIC50: −log10 of the molar value. Values after ≈ are worked out from the molar mass of the structure shown. Active and inactive are the calls of the source. The calls are words filed in the database; no cut-off is given here.

Columns and labels:
[1] = Blood clearance in Wistar rat at 1 mg/kg, po or 0.3 mg/kg, iv measured over 24 hrs by LC-MS/MS analysis; type: ADME, organism-based; details: in vivo
[2] = Volume of distribution at steady state in Wistar rat at 1 mg/kg, po or 0.3 mg/kg, iv measured over 24 hrs by LC-MS/MS analysis; type: ADME, organism-based; details: in vivo
[3] = MRT in Wistar rat at 0.3 mg/kg, iv measured over 24 hrs by LC-MS/MS analysis; type: ADME, organism-based; details: in vivo
[4] = Oral bioavailability in Wistar rat at 1 mg/kg measured over 24 hrs by LC-MS/MS analysis; type: ADME, organism-based; details: Wistar, in vivo
[5] = Blood clearance in dog at 1 mg/kg, po or 0.3 mg/kg, iv measured over 24 hrs by LC-MS/MS analysis; type: ADME, organism-based, Canis lupus familiaris; details: in vivo
[6] = Volume of distribution at steady state in dog at 1 mg/kg, po or 0.3 mg/kg, iv measured over 24 hrs by LC-MS/MS analysis; type: ADME, organism-based, Canis lupus familiaris; details: in vivo
[7] = MRT in dog at 0.3 mg/kg, iv measured over 24 hrs by LC-MS/MS analysis; type: ADME, organism-based, Canis lupus familiaris; details: in vivo
[8] = Oral bioavailability in dog at 1 mg/kg measured over 24 hrs by LC-MS/MS analysis; type: ADME, organism-based, Canis lupus familiaris; details: in vivo
Rattus norvegicus [9] = test: In vivo inhibition of PDE9A in Sprague-Dawley rat assessed as increase in cGMP level in urine at 10 to 50 mg/kg, po measured after 85 mins by ELISA; type: functional, organism-based; details: dose 10-50 mg/kg
[10] = Toxicity in rat assessed as increase in blood pressure at 10 to 50 mg/kg, po administered twice daily via gavage and measured every 5 mins by telemetry system based analysis; type: organism-based; details: in vivo, dose 10-50 mg/kg
[11] = Toxicity in rat assessed as increase in heart rate at 10 to 50 mg/kg, po administered twice daily via gavage and measured every 5 mins by telemetry system based analysis; type: organism-based; details: in vivo, dose 10-50 mg/kg
Mus musculus [12] = test: In vivo inhibition of PDE9A in mouse myocardial hypertrophy model with transverse aortic constriction assessed as reduction of hypertrophy of the left atrium at 10 mg/kg administered twice daily for 5 weeks; type: functional, organism-based
Mus musculus [13] = test: In vivo inhibition of PDE9A in mouse myocardial hypertrophy model with transverse aortic constriction assessed as improvement of heart function at 10 mg/kg administered twice daily for 5 weeks; type: functional, organism-based
Mus musculus [14] = test: In vivo inhibition of PDE9A in mouse myocardial hypertrophy model with transverse aortic constriction assessed as reduction in minimal diastolic left ventricular pressure at 10 mg/kg administered twice daily for 5 weeks; type: functional, organism-based
[15] = Selectivity index, ratio of IC50 for bovine PDE6 to IC50 for full length human PDE11A
[16] = Drug metabolism in rat hepatocytes assessed as glucuronidation at 10 uM incubated for 30 mins by LC-MS/MS analysis; type: ADME, cell-based, Hepatocyte; details: 0.5 h
[17] = target: High affinity cGMP-specific 3',5'-cyclic phosphodiesterase 9A (Homo sapiens, UniProt O76083); test: Inhibition of full length human PDE9A expressed in Sf9 insect cells using [3H]-cGMP as substrate incubated for 60 mins by microbeta scintillation counter analysis
Sequence of High affinity cGMP-specific 3',5'-cyclic phosphodiesterase 9A (O76083 whole entry): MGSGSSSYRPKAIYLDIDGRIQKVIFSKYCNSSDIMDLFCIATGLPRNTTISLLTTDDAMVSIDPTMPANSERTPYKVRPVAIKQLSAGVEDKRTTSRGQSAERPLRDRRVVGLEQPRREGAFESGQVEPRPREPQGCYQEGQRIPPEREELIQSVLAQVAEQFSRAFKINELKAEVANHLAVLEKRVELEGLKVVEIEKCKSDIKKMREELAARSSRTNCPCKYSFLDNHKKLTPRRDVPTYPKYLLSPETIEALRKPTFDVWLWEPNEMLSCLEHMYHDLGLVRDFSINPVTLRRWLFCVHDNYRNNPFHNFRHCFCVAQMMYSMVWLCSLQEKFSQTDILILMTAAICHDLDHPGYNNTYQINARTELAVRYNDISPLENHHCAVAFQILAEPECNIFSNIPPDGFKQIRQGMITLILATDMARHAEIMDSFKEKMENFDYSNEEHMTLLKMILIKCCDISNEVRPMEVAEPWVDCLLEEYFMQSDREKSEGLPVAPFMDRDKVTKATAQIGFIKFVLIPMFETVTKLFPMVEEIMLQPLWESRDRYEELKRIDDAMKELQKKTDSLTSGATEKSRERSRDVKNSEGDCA

[18] = Selectivity index, ratio of IC50 for bovine brain PDE1 to IC50 for full length human PDE9A
Homo sapiens [19] = species: Homo sapiens; test: Selectivity index, ratio of IC50 for full length human PDE2A to IC50 for full length human PDE9A
Homo sapiens [20] = species: Homo sapiens; test: Selectivity index, ratio of IC50 for full length human PDE3B to IC50 for full length human PDE9A
Homo sapiens [21] = species: Homo sapiens; test: Selectivity index, ratio of IC50 for human platelet PDE5A to IC50 for full length human PDE9A
Homo sapiens [22] = species: Homo sapiens; test: Selectivity index, ratio of IC50 for full length human PDE7B to IC50 for full length human PDE9A
Homo sapiens [23] = species: Homo sapiens; test: Selectivity index, ratio of IC50 for full length human PDE8A to IC50 for full length human PDE9A
Homo sapiens [24] = species: Homo sapiens; test: Selectivity index, ratio of IC50 for full length human PDE10A to IC50 for full length human PDE9A
Homo sapiens [25] = species: Homo sapiens; test: Selectivity index, ratio of IC50 for full length human PDE11A to IC50 for full length human PDE9A
Homo sapiens [26] = species: Homo sapiens; test: Selectivity index, ratio of IC50 for full length human PDE4B to IC50 for full length human PDE9A
[27] = Selectivity index, ratio of IC50 for bovine PDE6 to IC50 for full length human PDE9A
[28] = target: T1, High affinity cGMP-specific 3',5'-cyclic phosphodiesterase 9A (Mus musculus) (UniProt O70628); test: Inhibition of mouse PDE9A using [3H]-cGMP as substrate at 34 nM incubated for 60 mins by microbeta scintillation counter analysis relative to control
T1 sequence (whole entry): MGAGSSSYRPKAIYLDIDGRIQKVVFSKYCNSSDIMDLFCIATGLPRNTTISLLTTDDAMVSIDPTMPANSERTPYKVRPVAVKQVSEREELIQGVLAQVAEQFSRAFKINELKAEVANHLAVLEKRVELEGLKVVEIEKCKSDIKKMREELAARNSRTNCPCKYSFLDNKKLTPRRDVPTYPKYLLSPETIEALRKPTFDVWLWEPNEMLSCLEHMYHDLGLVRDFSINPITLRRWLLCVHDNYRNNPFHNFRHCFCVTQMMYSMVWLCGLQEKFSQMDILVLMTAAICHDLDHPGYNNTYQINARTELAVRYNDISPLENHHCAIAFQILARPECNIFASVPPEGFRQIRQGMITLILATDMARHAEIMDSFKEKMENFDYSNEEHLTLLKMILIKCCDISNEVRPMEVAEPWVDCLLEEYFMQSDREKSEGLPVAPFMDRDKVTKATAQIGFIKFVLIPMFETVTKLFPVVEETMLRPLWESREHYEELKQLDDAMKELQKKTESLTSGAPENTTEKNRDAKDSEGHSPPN

[29] = target: T2, High affinity cGMP-specific 3',5'-cyclic phosphodiesterase 9A (Rattus norvegicus) (UniProt Q8QZV1); test: Inhibition of rat PDE9A using [3H]-cGMP as substrate at 42 nM incubated for 60 mins by microbeta scintillation counter analysis relative to control
T2 sequence (whole entry): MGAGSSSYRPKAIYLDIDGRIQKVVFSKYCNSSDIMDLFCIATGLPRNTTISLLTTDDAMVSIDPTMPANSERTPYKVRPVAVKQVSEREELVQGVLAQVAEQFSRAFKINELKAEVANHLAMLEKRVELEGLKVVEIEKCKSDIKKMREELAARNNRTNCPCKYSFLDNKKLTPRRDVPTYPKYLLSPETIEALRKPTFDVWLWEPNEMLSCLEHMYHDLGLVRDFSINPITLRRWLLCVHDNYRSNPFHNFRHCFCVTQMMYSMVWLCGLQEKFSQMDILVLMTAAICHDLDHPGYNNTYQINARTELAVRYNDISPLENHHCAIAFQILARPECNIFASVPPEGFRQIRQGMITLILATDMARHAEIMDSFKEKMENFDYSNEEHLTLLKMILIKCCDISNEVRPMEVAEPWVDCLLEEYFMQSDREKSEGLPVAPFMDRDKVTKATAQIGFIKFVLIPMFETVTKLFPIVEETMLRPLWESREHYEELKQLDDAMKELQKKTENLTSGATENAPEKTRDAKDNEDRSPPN

Rattus norvegicus [30] = test: In vivo inhibition of PDE9A in Sprague-Dawley rat assessed as increase in cGMP level in urine at 40 mg/kg, po measured after 85 mins by ELISA; type: functional, organism-based
[31] = Blood clearance in po or iv dosed Wistar rat measured over 24 hrs by LC-MS/MS analysis; type: ADME, organism-based; details: in vivo
[32] = Drug metabolism in rat hepatocytes assessed as glucuronidation of cyclic lactam at 10 uM incubated for 4 hrs by LC-MS/MS analysis; type: ADME, cell-based, Hepatocyte
[33] = Drug metabolism in cryopreserved human hepatocytes assessed as glucuronidation of cyclic lactam at 10 uM incubated for 4 hrs by LC-MS/MS analysis; type: ADME, cell-based, Hepatocyte
[34] = Solubility of compound in PBS at pH 6.5 at 50 mg/ml incubated for 24 hrs by LC/MS/MS or HPLC analysis; type: physicochemical; details: buffer, pH 6.5, 24 h

C[C@@H]1CN(Cc2ncccn2)C[C@H]1c1nc2c(cnn2C2CCOCC2)c(=O)[nH]1 [EDELINONTRINE]
CL [1]: 50 mL/min/kg
Vdss [2]: 2.2 L/kg
MRT [3]: 0.8 h
bioavailability [4]: 41%
CL [5]: 8.3 mL/min/kg
Vdss [6]: 1.5 L/kg
MRT [7]: 3.1 h
F [8]: 38%
inhibition (Rattus norvegicus [9]): Active
Activity [10]: Non-Toxic
Activity [11]: Non-Toxic
inhibition (Mus musculus [12]): Active
inhibition (Mus musculus [13]): Active
inhibition (Mus musculus [14]): Active

Cc1ccc(-c2c3c([nH]c(=O)c2C#N)CCCC3)cc1
Ratio IC50 [15]: 17

Cc1ccc(-c2c3c([nH]c(=O)c2C#N)C(C(C)C)CNC3)cc1.Cl (racemic)
Drug metabolism [16]: Metabolite_Detected

CCCCC1CCCc2c1[nH]c(=O)c(C#N)c2-c1ccc(C)cc1 (racemic)
pIC50 [17]: 7.46

CCc1ccnc2c(N3CCC(C)(C)CC3)c(C#N)c(=O)[nH]c12
pIC50 [17]: 6.21

CCCC1CNCc2c1[nH]c(=O)c(C#N)c2N1CCC2(CCOC2)CC1 (racemic)
pIC50 [17]: 7.89
Ratio IC50 [18]: 12

Cc1ccc(-c2c(C#N)c(=O)[nH]c3cccnc23)cc1
pIC50 [17]: 6.14

CCCC1CNCc2c1[nH]c(=O)c(C#N)c2N1CCC(C)CC1 (racemic)
pIC50 [17]: 6.70

CCCC1CNCc2c1[nH]c(=O)c(C#N)c2N1CCC2(CC1)CC2 (stereo in doubt; form 2)
Ratio IC50 [18]: 49
Ratio IC50 (Homo sapiens [19]): > 650
Ratio IC50 (Homo sapiens [20]): > 650
Ratio IC50 (Homo sapiens [21]): 143
Ratio IC50 (Homo sapiens [22]): > 650
Ratio IC50 (Homo sapiens [23]): 97
Ratio IC50 (Homo sapiens [24]): > 650
Ratio IC50 (Homo sapiens [25]): 430
Ratio IC50 (Homo sapiens [26]): 238
Ratio IC50 [27]: 101
inhibition [28]: 50%
inhibition [29]: 50%
inhibition (Rattus norvegicus [30]): Active

CCCC1CNCc2c1[nH]c(=O)c(C#N)c2N1CCC2(CC2)C(F)(F)C1 (racemic)
pIC50 [17]: 7.00
Ratio IC50 [18]: 9

CCCC1CCCc2c(-c3ccc(C)cc3)nc(=O)[nH]c21 (racemic)
pIC50 [17]: 4.87

CCCC1CNCc2c1[nH]c(=O)c(C#N)c2N1CCC(C)(C)CC1.Cl (configuration not stated)
Ratio IC50 (Homo sapiens [19]): > 100
Ratio IC50 (Homo sapiens [20]): > 100
Ratio IC50 (Homo sapiens [21]): > 100
Ratio IC50 (Homo sapiens [22]): > 100
Ratio IC50 (Homo sapiens [23]): > 100
Ratio IC50 (Homo sapiens [24]): > 100
Ratio IC50 (Homo sapiens [25]): > 100
CL [31]: 46.7 mL/min/kg

COCC1CCCc2c1[nH]c(=O)c(C#N)c2-c1ccc(C)cc1 (racemic)
Drug metabolism [16]: Metabolite_Detected

CCCC1CCCc2c1[nH]c(=O)c(C#N)c2-c1ccc(C)cc1 (configuration not stated)
Ratio IC50 (Homo sapiens [19]): 69
Ratio IC50 (Homo sapiens [20]): 69
Ratio IC50 (Homo sapiens [21]): 69
Ratio IC50 (Homo sapiens [22]): 69
Ratio IC50 (Homo sapiens [23]): 69
Ratio IC50 (Homo sapiens [24]): 69
Ratio IC50 (Homo sapiens [25]): 69
Ratio IC50 (Homo sapiens [26]): 69

CCCC1CNCc2c1[nH]c(=O)c(C#N)c2N1CCC2(CC1)CC2(F)F (racemic)
Ratio IC50 [18]: 30

CC1(C)CCN(c2c(C#N)c(=O)[nH]c3cccnc23)CC1
pIC50 [17]: 6.48

CCCC1CNCc2c1[nH]c(=O)c(C#N)c2N1CCC2(CC1)CC2 (stereo in doubt; form 1)
pIC50 [17]: < 5.00

CCCC1CNCc2c1[nH]c(=O)c(C#N)c2-c1ccc(C)cc1.Cl (configuration not stated)
Ratio IC50 (Homo sapiens [19]): > 100
Ratio IC50 (Homo sapiens [20]): > 100
Ratio IC50 (Homo sapiens [21]): > 100
Ratio IC50 (Homo sapiens [22]): > 100
Ratio IC50 (Homo sapiens [23]): > 100
Ratio IC50 (Homo sapiens [24]): > 100
Ratio IC50 (Homo sapiens [25]): > 100
Ratio IC50 (Homo sapiens [26]): > 100
CL [31]: 60 mL/min/kg
Drug metabolism [32]: Metabolite_Detected
Drug metabolism [33]: Metabolite_Detected

Cc1ccc(-c2c3c([nH]c(=O)c2C#N)C(C)CCC3)cc1 (racemic)
pIC50 [17]: 6.51
Ratio IC50 [18]: 3
solubility [34]: 9 µg/mL (≈ 32.3 µM)
